# Experimental data from PubChem BioAssay (NCI).
#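 Results reflect a 48-hour exposure of cells in 96-well plates to compound at five concentrations. TGI denotes the concentration required for complete inhibition of growth.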
# Columns and labels:
# Assay in all cases: NCI tumour cell line growth inhibition, 48 h
# [1] = system: TK-10 renal
# [2] = system: DMS 114 small cell lung
# [3] = system: 786-0 renal
# [4] = system: KM12 colon
# [5] = system: OVCAR-8 ovarian
# [6] = system: IGROV1 ovarian
# [7] = system: UACC-257 melanoma
# [8] = system: SNB-78 CNS
# [9] = system: SN12C renal
# [10] = system: OVCAR-5 ovarian
# [11] = system: SK-MEL-28 melanoma
# [12] = system: DLD-1 colon
# [13] = system: RPMI-8226 leukemia
# [14] = system: CCRF-CEM leukemia
# [15] = system: COLO 205 colon
# [16] = system: M14 melanoma
# [17] = system: A549 NSCLC
# [18] = system: RXF-631 renal
# [19] = system: EKVX NSCLC
# [20] = system: NCI-H460 lung
# [21] = system: SF-295 CNS
# [22] = system: MALME-3M melanoma
# [23] = system: OVCAR-3 ovarian
# [24] = system: SW-620 colon
# [25] = system: HL-60(TB) leukemia
# [26] = system: M19-MEL melanoma
# [27] = system: UACC-62 melanoma
# [28] = system: HCT-116 colon
# [29] = system: HOP-62 NSCLC
# [30] = system: SR leukemia
# [31] = system: SK-MEL-2 melanoma
# [32] = system: UO-31 renal
# [33] = system: HCC-2998 colon
# [34] = system: CAKI-1 renal
# [35] = system: RXF 393 renal
# [36] = system: MOLT-4 leukemia
# [37] = system: HCT-15 colon
# [38] = system: KM20L2 colon
# [39] = system: HOP-18 NSCLC
# [40] = system: ACHN renal
# [41] = system: SK-MEL-5 melanoma
# [42] = system: OVCAR-4 ovarian
# [43] = system: SNB-75 CNS
# [44] = system: SNB-19 CNS
# [45] = system: NCI-H226 lung
# [46] = system: XF 498 CNS
# [47] = system: HT29 colon
# [48] = system: DMS 273 small cell lung
# [49] = system: NCI-H522 lung
# [50] = system: LXFL 529 NSCLC
# [51] = system: HOP-92 NSCLC
# [52] = system: K-562 leukemia
# [53] = system: U251 CNS
# [54] = system: SK-OV-3 ovarian
# [55] = system: SF-539 CNS
# [56] = system: NCI-H23 lung
# [57] = system: LOX IMVI melanoma
# [58] = system: MCF7 breast
# [59] = system: SN12K1 renal
# [60] = system: NCI/ADR-RES ovarian
# [61] = system: A498 renal
# [62] = system: P388 leukemia
# [63] = system: P388/ADR leukemia
# [64] = system: SF-268 CNS
structure (smiles),measurement,setting,value
CCCCCCCCCCCCCCCCP(=O)(OC)OC,TGI,[1],31 µM
same,TGI,[2],30.5 µM
same,TGI,[3],31.4 µM
same,TGI,[4],32.2 µM
same,TGI,[5],30.9 µM
same,TGI,[6],34.6 µM
same,TGI,[7],31.8 µM
same,TGI,[8],34.1 µM
same,TGI,[9],31.3 µM
same,TGI,[10],27.1 µM
same,TGI,[11],31.6 µM
same,TGI,[12],31.4 µM
same,TGI,[13],35 µM
same,TGI,[14],40.1 µM
same,TGI,[15],30.7 µM
same,TGI,[16],30.2 µM
same,TGI,[17],33.4 µM
same,TGI,[18],31.3 µM
same,TGI,[19],30 µM
same,TGI,[20],31.1 µM
same,TGI,[21],32.4 µM
same,TGI,[22],32.7 µM
same,TGI,[23],31.9 µM
same,TGI,[24],28.2 µM
same,TGI,[25],27.3 µM
same,TGI,[26],30.3 µM
same,TGI,[27],27.8 µM
same,TGI,[28],33.1 µM
same,TGI,[29],24.3 µM
same,TGI,[30],37.9 µM
same,TGI,[31],30 µM
same,TGI,[32],24.5 µM
same,TGI,[33],30.8 µM
same,TGI,[34],30.5 µM
same,TGI,[35],34.4 µM
same,TGI,[36],32.3 µM
same,TGI,[37],30.2 µM
same,TGI,[38],37.4 µM
same,TGI,[39],28.6 µM
same,TGI,[40],28 µM
same,TGI,[41],30.7 µM
same,TGI,[42],35.9 µM
same,TGI,[43],32 µM
same,TGI,[44],28.6 µM
same,TGI,[45],33.2 µM
same,TGI,[46],25.8 µM
same,TGI,[47],31.6 µM
same,TGI,[48],27.6 µM
same,TGI,[49],26.8 µM
same,TGI,[50],29.3 µM
same,TGI,[51],35.3 µM
same,TGI,[52],44.8 µM
same,TGI,[53],32.4 µM
same,TGI,[54],29 µM
same,TGI,[55],34.9 µM
same,TGI,[56],31.8 µM
same,TGI,[57],31.9 µM
Nc1nc(N)nc(-c2ccccc2NS(=O)(=O)c2ccc([N+](=O)[O-])cc2)n1,TGI,[2],> 100 µM
same,TGI,[4],> 100 µM
same,TGI,[5],> 100 µM
same,TGI,[6],> 100 µM
same,TGI,[7],> 100 µM
same,TGI,[8],> 100 µM
same,TGI,[9],> 100 µM
same,TGI,[58],> 100000 nM
same,TGI,[59],> 100 µM
same,TGI,[10],> 100 µM
same,TGI,[11],> 100 µM
same,TGI,[12],> 100 µM
same,TGI,[13],> 100 µM
same,TGI,[14],> 100 µM
same,TGI,[15],> 31.6 µM
same,TGI,[17],> 100 µM
same,TGI,[19],> 100 µM
same,TGI,[20],> 100 µM
same,TGI,[21],> 100 µM
same,TGI,[22],> 100 µM
same,TGI,[23],> 100 µM
same,TGI,[24],> 100 µM
same,TGI,[25],61.5 µM
same,TGI,[26],> 100 µM
same,TGI,[27],> 100 µM
same,TGI,[60],> 100000 nM
same,TGI,[28],> 100 µM
same,TGI,[29],> 100 µM
same,TGI,[31],> 100 µM
same,TGI,[32],> 100 µM
same,TGI,[33],> 100 µM
same,TGI,[34],> 34.6 µM
same,TGI,[35],> 100 µM
same,TGI,[36],> 100 µM
same,TGI,[37],> 100 µM
same,TGI,[38],> 100 µM
same,TGI,[61],> 100000 nM
same,TGI,[39],> 100 µM
same,TGI,[41],> 84.8 µM
same,TGI,[42],> 100 µM
same,TGI,[62],> 100 µM
same,TGI,[43],> 90.6 µM
same,TGI,[44],> 100 µM
same,TGI,[45],> 100 µM
same,TGI,[46],63.5 µM
same,TGI,[63],> 100000 nM
same,TGI,[47],> 100 µM
same,TGI,[48],> 100 µM
same,TGI,[49],> 100 µM
same,TGI,[64],> 100000 nM
same,TGI,[51],> 100 µM
same,TGI,[53],> 100 µM
same,TGI,[54],> 100 µM
same,TGI,[55],> 100 µM
same,TGI,[56],> 100 µM
same,TGI,[57],> 100 µM
O=C1c2cccc3cc4ccccc4c(c23)C(=O)N1CCNCCNCCNCCN1C(=O)c2cccc3cc4ccccc4c(c23)C1=O,TGI,[2],0.177 µM
same,TGI,[5],0.735 µM
same,TGI,[6],1.22 µM
same,TGI,[7],0.767 µM
same,TGI,[8],0.385 µM
same,TGI,[9],1.41 µM
same,TGI,[58],1870 nM
same,TGI,[10],0.672 µM
same,TGI,[11],0.324 µM
same,TGI,[12],0.344 µM
same,TGI,[14],0.637 µM
same,TGI,[15],0.184 µM
same,TGI,[17],1 µM
same,TGI,[19],0.666 µM
same,TGI,[20],0.0233 µM
same,TGI,[21],0.281 µM
same,TGI,[22],0.78 µM
same,TGI,[23],0.546 µM
same,TGI,[24],0.308 µM
same,TGI,[25],0.212 µM
same,TGI,[26],0.161 µM
same,TGI,[27],0.156 µM
same,TGI,[60],1530 nM
same,TGI,[28],1.11 µM
same,TGI,[31],0.252 µM
same,TGI,[32],0.36 µM
same,TGI,[33],0.0829 µM
same,TGI,[34],0.344 µM
same,TGI,[35],0.0435 µM
same,TGI,[36],0.212 µM
same,TGI,[37],0.474 µM
same,TGI,[38],0.597 µM
same,TGI,[61],566 nM
same,TGI,[39],0.398 µM
same,TGI,[41],0.578 µM
same,TGI,[42],0.314 µM
same,TGI,[43],0.106 µM
same,TGI,[44],0.927 µM
same,TGI,[45],> 100 µM
same,TGI,[46],0.178 µM
same,TGI,[63],470 nM
same,TGI,[47],0.552 µM
same,TGI,[48],0.159 µM
same,TGI,[64],197 nM
same,TGI,[51],0.254 µM
same,TGI,[53],0.539 µM
same,TGI,[55],0.288 µM
same,TGI,[56],0.159 µM
same,TGI,[57],0.155 µM
